Among the data in patent US20250296959A1, “B7-H3 TARGETING PEPTIDES AND CONSTRUCTS THEREOF” (Mariana Oncology Inc., priority 2024, published 2025) are Kd values, retold here.

The target of this assay is T1, human 4lg B7-H3 (Homo sapiens, UniProt Q5ZPR3).
T1 sequence (Q5ZPR3 29-534): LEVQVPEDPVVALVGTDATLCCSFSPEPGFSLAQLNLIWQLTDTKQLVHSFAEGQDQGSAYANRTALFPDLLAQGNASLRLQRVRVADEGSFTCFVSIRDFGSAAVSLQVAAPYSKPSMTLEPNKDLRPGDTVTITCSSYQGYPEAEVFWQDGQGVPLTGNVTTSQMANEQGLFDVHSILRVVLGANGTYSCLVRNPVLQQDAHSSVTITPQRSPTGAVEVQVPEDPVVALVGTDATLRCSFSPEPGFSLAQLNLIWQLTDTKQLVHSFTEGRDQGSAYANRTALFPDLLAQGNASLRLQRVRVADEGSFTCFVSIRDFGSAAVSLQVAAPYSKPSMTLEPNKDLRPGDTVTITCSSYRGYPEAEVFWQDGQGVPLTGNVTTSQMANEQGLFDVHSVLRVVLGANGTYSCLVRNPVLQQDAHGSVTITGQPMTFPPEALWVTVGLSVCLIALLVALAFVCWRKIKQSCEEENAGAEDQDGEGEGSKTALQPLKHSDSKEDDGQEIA
Description: Affinity determination by surface plasmon resonance (SPR) to 4Ig B7-H3. To be noted: 4Ig B7-H3. In general terms: In SPR one partner is held on a chip, and binding of the other changes the refractive index at the surface.

[1] abbreviates: SPR KD—25° C., 25° C. flow cell temperature.
Setting [2] is: SPR KD—37° C., 37° C. flow cell temperature.

Starred links: 1 amine or outer side, 2 acyl side, 3 side chain; linkers in the order of their positions; H or OH if unused. Positions of bridges follow the written chain, without caps; N, C: chain ends. Non-standard residues stand in square brackets, D forms with d. Residues, ends and D or L forms follow the SMILES beside them. *: point of attachment. Phe(3-CH2NH2) = O=C([C@H](Cc1cccc(CN[*:3])c1)N[*:1])[*:2]; DOTA = O=C(O)CN1CCN(CC(=O)O)CCN(CC(=O)*)CCN(CC(=O)O)CC1; Phe(4-COOH) = N[C@@H](Cc1ccc(C(=O)O)cc1)C(=O)O; Trp(5-F) = N[C@@H](Cc1c[nH]c2ccc(F)cc12)C(=O)O; Ala(4-THP) = N[C@@H](CC1CCOCC1)C(=O)O; Val(3-OH) = CC(C)(O)[C@H](N)C(=O)O; 4Pal = N[C@@H](Cc1ccncc1)C(=O)O; Tle = CC(C)(C)[C@H](N)C(=O)O; hLeu = CC(C)CC[C@H](N)C(=O)O; hSer = N[C@@H](CCO)C(=O)O; Nle = CCCC[C@H](N)C(=O)O; Sar = CNCC(=O)O

What is called Kd is the equilibrium constant for the complex coming apart. Read a low Kd as higher affinity. Regarding `CCCC[C@H](NC(C)=O)C(=O)N[C@@H](Cc1ccc(O)cc1)C(=O)N[C@H]1CSSC[C@@H](C(=O)N[C@@H](Cc2c[nH]c3ccccc23)C(=O)N[C@@H](Cc2ccccc2)C(=O)N[C@H](C(=O)N[C@H](CCCCNC(=O)CN2CCN(CC(=O)O)CCN(CC(=O)O)CCN(CC(=O)O)CC2)C(N)=O)[C@@H](C)O)NC(=O)[C@H](Cc2ccc(O)cc2)NC(=O)[C@H](C(C)C)NC(=O)[C@H](CC(=O)O)NC(=O)[C@H](Cc2ccc(O)cc2)NC(=O)[C@H](Cc2ccncc2)NC(=O)CNC(=O)[C@H](C(C)C)NC1=O` [compound 79, Ac-Nle-Y-C-V-G-4PyA-Y-D-V-Y-C-W-F-Thr-dLys(DOTA)-CONH2] (Ac-[Nle]YCVG[4Pal]YDVYCWFT[dK](DOTA)-NH2; disulfide 3-11), under setting [1], the dissociation constant Kd lay in the range of 10 to 100 nM.

`CC(=O)N[C@@H](CCC(C)C)C(=O)N[C@@H](Cc1ccc(O)cc1)C(=O)N[C@H]1CSSC[C@@H](C(=O)N[C@@H](Cc2c[nH]c3ccc(F)cc23)C(=O)N[C@@H](Cc2ccccc2)C(=O)N[C@H](C(=O)O)C(C)(C)O)NC(=O)[C@H](Cc2ccc(O)cc2)NC(=O)[C@H](C(C)C)NC(=O)[C@H](CC(=O)O)NC(=O)[C@H](Cc2ccc(C(=O)O)cc2)NC(=O)[C@H](CCCCNC(=O)CN2CCN(CC(=O)O)CCN(CC(=O)O)CCN(CC(=O)O)CC2)NC(=O)CNC(=O)[C@H](C(C)C)NC1=O` [compound 325, Ac-hLeu-Y-C-V-G-Lys(DOTA)-4COOHPhe-D-V-Y-C-5FW-F-hydroxyVal-COOH] (Ac-[hLeu]YCVGK(DOTA)[Phe(4-COOH)]DVYC[Trp(5-F)]F[Val(3-OH)]-OH; disulfide 3-11) displayed a Kd under setting [2] of 10 to 100 nM. Under setting [2], `CC(=O)N[C@@H](CCC(C)C)C(=O)N[C@@H](Cc1ccc(O)cc1)C(=O)N[C@H]1CSSC[C@@H](C(=O)N[C@@H](Cc2c[nH]c3ccc(F)cc23)C(=O)N[C@@H](Cc2ccccc2)C(=O)N[C@H](C(=O)N[C@H](CCCCNC(=O)CN2CCN(CC(=O)O)CCN(CC(=O)O)CCN(CC(=O)O)CC2)C(=O)O)C(C)(C)O)NC(=O)[C@H](Cc2ccc(O)cc2)NC(=O)[C@H](C(C)C)NC(=O)[C@H](CC(=O)O)NC(=O)[C@H](CC2CCOCC2)NC(=O)[C@H](CCCCN)NC(=O)CN(C)C(=O)[C@H]([C@@H](C)O)NC1=O` [compound 386, Ac-hLeu-Y-C-Thr-Sar-K-ThpA-D-V-Y-C-5FW-F-hydroxyVal-dLys(DOTA)-COOH] (Ac-[hLeu]YCT[Sar]K[Ala(4-THP)]DVYC[Trp(5-F)]F[Val(3-OH)][dK](DOTA)-OH; disulfide 3-11) showed a Kd of 1 to 10 nM. Turning to `CC(=O)N[C@@H](CCC(C)C)C(=O)N[C@@H](Cc1ccc(O)cc1)C(=O)N[C@H]1CSSC[C@@H](C(=O)N[C@@H](Cc2c[nH]c3ccc(F)cc23)C(=O)N[C@@H](Cc2ccccc2)C(=O)N2CCC[C@H]2C(=O)N[C@H](CCCCNC(=O)CN2CCN(CC(=O)O)CCN(CC(=O)O)CCN(CC(=O)O)CC2)C(=O)O)NC(=O)[C@H](Cc2ccc(O)cc2)NC(=O)[C@H](C(C)C)NC(=O)[C@H](CC(=O)O)NC(=O)[C@H](CC2CCOCC2)NC(=O)[C@H](CCO)NC(=O)CNC(=O)[C@H](C(C)(C)C)NC1=O` [compound 311, Ac-hLeu-Y-C-Tbg-G-hSer-ThpA-D-V-Y-C-5FW-F-Pro-dLys(DOTA)-COOH] (Ac-[hLeu]YC[Tle]G[hSer][Ala(4-THP)]DVYC[Trp(5-F)]FP[dK](DOTA)-OH; disulfide 3-11), the dissociation constant Kd under setting [1] lay within 1 to 10 nM. On the same count and under the same terms, the figure for `CC(=O)N[C@@H](CCC(C)C)C(=O)N[C@@H](Cc1ccc(O)cc1)C(=O)N[C@H]1CSSC[C@@H](C(=O)N[C@@H](Cc2c[nH]c3ccc(F)cc23)C(=O)N[C@@H](Cc2ccccc2)C(=O)N[C@H](C(N)=O)[C@@H](C)O)NC(=O)[C@H](Cc2cccc(CNC(=O)CN3CCN(CC(=O)O)CCN(CC(=O)O)CCN(CC(=O)O)CC3)c2)NC(=O)[C@H](C(C)C)NC(=O)[C@H](CC(=O)O)NC(=O)[C@H](Cc2ccc(O)cc2)NC(=O)[C@H](CCCCN)NC(=O)CNC(=O)[C@H](C(C)C)NC1=O` [compound 183, Ac-hLeu-Y-C-V-G-K-Y-D-V-MAF(DOTA)-C-5FW-F-Thr-CONH2] (Ac-[hLeu]YCVGKYDV[Phe(3-CH2NH2)](DOTA)C[Trp(5-F)]FT-NH2; disulfide 3-11) is 1 to 10 nM.
